Assay results taken from US11066379B2 (THE TEXAS A&M UNIVERSITY SYSTEM, priority 2018, dated 2021).

Experiments:
[1] = tested on: SH-SY5Y cells; assay: Intracellular ROS levels (carboxy-H2DCFDA) after H2O2; assay type: cell-based, human; details: 150 μM H2O2 co-treatment 6 h
Description: Intracellular levels of reactive oxygen species (ROS) were determined with carboxy-H2DCFDA (5-(and-6)-carboxy-2′,7′-dichlorodihydrofluorescein diacetate). This dye diffuses through the cellular membrane and is converted by cellular esterases to carboxy-H2DCFH (non-fluorescent). When carboxy-H2DCFH is oxidized by ROS, it becomes fluorescent (Halliwell, B. and Whiteman, M. Br. J. Pharmacol., 2004, 142, 231-255). Cells were seeded at a density of 2.5×10^5 cells/mL in 96-well plates and allowed to attach for 24 h. Following treatment with compounds at various concentrations (1 μM→1 nM) and 150 μM H2O2 for 6 h, SH-SY5Y cells were washed twice with serum-free culture medium. Then, carboxy-H2DCFDA 20 μM dissolved in serum-free culture medium was added to each well and the cells were incubated for 1 h at 37° C. After this incubation, the medium with the fluorescent dye was replaced with PBS and the plate was incubated for 30 min at 37° C. Fluorescence was read at 527 nm, with an excitation wavelength of 495 nm. All experiments were performed four times.

[2] = tested on: mitochondrial membrane permeability transition pore (mPTP) in SH-SY5Y cells; assay: Mitochondrial membrane permeability transition pore (mPTP) measurement, TBHP-induced opening; assay type: cell-based, human; details: 1 mM TBHP
Description: The blockage of mPTP by compounds was determined with the MitoProbe Transition Assay Kit following manufacturer's instructions. Briefly, SH-SY5Y human neuroblastoma cells were re-suspended in pre-warmed PBS/Ca^+2 buffer at a final concentration of 1×10^6 cells/mL. Cells were loaded with 0.01 μM Calcein-AM and incubated at 37° C. for 15 min. Then, 0.4 mM CoCl2 and compounds at selected concentrations were added and incubated for 15 min at 37° C. […] After this incubation, cells were centrifuged and re-suspended in 100 μL of PBS. Just before analyzing, 1 mM tert-butyl hydroperoxide (TBHP) was added to the samples to induce pore opening. Fluorescence intensity was measured at 488 nm excitation and 517 nm emission wavelengths by flow cytometry using the ImageStreamMKII (Amnis Corporation, Merck-Millipore) and […] software. The fluorescence of 10,000 events was analyzed with IDEASR Application vs 6.0 (Amnis Corporation, Merck-Millipore). Experiments were carried out four times.

[3] = target: CypD (Homo sapiens, UniProt P30405); assay: CypD enzyme inhibition assay (PPIase activity); assay type: biochemical; details: for IC50: CypD 1 nM; for selectivity for CypD over CypA: PPIase IC50 CypA vs CypD
Description: The inhibition of the peptidyl-prolyl cis-trans isomerase (PPIase) activity of compounds was determined by following the rate of hydrolysis of N-succinyl-Ala-Ala-Pro-Phe-pnitroanilide by chymotrypsin. CsA was used as positive control. The assay was performed as previously described (Yan, W., Qing, J., Mei, H., Nong, J., Huang, J., Zhu, J., Jiang, H., Liu, L., Zhang, L. and Li, J. Bioorg. Med. Chem. Lett., 2015, 25, 5682-5686) with small modifications. The assay buffer (20 mM Tris-HCl, 50 mM NaCl, pH 7.8), CypD (1 nM) and the compounds at concentrations ranging from 0.001 to 10 μM were pre-cooled at 4° C. for 1 h. After that time, chymotrypsin at 0.4 mg/mL in 1 mM HCl was added to each well. The reaction was initiated by the addition of the peptide (0.1 mg/mL in 500 mM LiCl in THF). The absorbance at 380 nm was monitored every 30 sec for 5 min with a spectrophotometer plate reader. The blank rates of hydrolysis (in absence of CypD) were subtracted from the rates in the presence of the enzyme. The half-maximal inhibitory concentration (IC50) was calculated by fitting the data with a log(inhibitor) vs. response model of GraphPad Prism 5.0 software. All experiments were performed four times.

[4] = target: T1, CypA (Homo sapiens, UniProt P62937); assay: CypA PPIase activity inhibition; assay type: biochemical; details: PPIase IC50 CypA vs CypD
T1 construct: Active human CypA full-length protein was from Abcam; purchased Abcam

[5] = Viability of human T lymphocytes (MTT assay, 48 h); assay type: cell-based; details: human; 0.1 μM, 48 hours; read-out: decrease in cell viability
Description: (§1) The MTT (3-[4,5-dimethylthiazol-2-yl]-2,5-diphenyltetrazoliumbromide) assay was used to determine the cytotoxicity of gracilin derivatives in T lymphocytes (Burton, J. D. Methods Mol. Med., 2005, 110, 69-78) and SH-SY5Y cells and the protective effect of these compounds against H2O2 insult in neuroblastoma cells as previously described (Leiros, M., Alonso, E., Sanchez, J. A., Rateb, M. E., Ebel, R., Houssen, W. E., Jaspars, M., Alfonso, A. and Botana, L. M. ACS Chem. Neurosci., 2014, S, 71-80). Human T lymphocytes were cultured in 24 well plates at the concentration of 2.5×10^6 cells/mL and exposed to different compound concentrations (0.01, 0.1, 1 and 10 μM) added to the culture medium. Human T cells were maintained in the presence of the pure compound at 37° C. in humidified 5% CO2/95% air atmosphere for 48 h.
(§2) Saponin was used as cellular death control and its absorbance was subtracted from the other data. After the incubation period with compounds, assay was performed. First cells were centrifuged (1500 rpm, 5 min, 4° C.). The pellets were resuspended in saline solution with MTT (250 μg/mL) and then incubated at 37° C. during 30 min. After washing off excess MTT twice with saline solution, cells were disaggregated with H2O and sonicated for 1 min and the absorbance of the colored formazan salt was measured at 595 nm in a spectrophotometer plate reader. All experiments were performed three times.

[6] = tested on: human T lymphocytes; assay: Viability of human T lymphocytes (MTT assay, 48 h); assay type: cell-based; details: in words
Description: as §1, §2

CypD, sequence (P30405 30-207): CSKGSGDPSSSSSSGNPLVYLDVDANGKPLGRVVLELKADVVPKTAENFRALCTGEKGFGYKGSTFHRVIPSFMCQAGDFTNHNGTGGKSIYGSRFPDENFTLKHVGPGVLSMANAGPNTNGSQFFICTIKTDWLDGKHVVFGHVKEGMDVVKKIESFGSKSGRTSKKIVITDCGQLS
T1 sequence (P62937 whole entry): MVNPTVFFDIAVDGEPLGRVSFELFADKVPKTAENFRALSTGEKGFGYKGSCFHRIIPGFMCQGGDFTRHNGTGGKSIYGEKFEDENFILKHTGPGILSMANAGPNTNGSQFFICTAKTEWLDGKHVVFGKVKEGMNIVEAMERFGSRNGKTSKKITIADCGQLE

| SMILES | ROS levels [1] | mPTP opening [2] | IC50 [3] [µM] | selectivity for CypA [4] [fold] | selectivity for CypD over CypA [3] | selectivity for CypD over CypA ([3]; listed as (−)-27a) [fold] | cytotoxicity at 48 h, 0.1 μM [5] [%] | impact on T-cell viability [6] |
| --- | --- | --- | --- | --- | --- | --- | --- | --- |
| CC(=O)O[C@H]1O[C@@H](OC(C)=O)[C@@H]2CC[C@](O)(C3(C)CCCC(C)(C)C3)C[C@H]12 (stereo partly drawn) [Compound 22, (1S,3R,3aS,5R,7aR)-5-hydroxy-5-(1,3,3-trimethylcyclohexyl)octahydroisobenzo-furan-1,3-diyl diacetate] | diminishing ROS at two or three concentrations | prevent TBHP-induced opening | < 0.5 | 4 |  |  |  |  |
| CC(=O)O[C@@H]1OC[C@H]2C=C(C3(C)CCCCC3)CC[C@@H]12 [Compound 27a, (1S,3aS,7aR)-5-(1-methylcyclohexyl)-1,3,3a,6,7,7a-hexahydroisobenzofuran-1-yl acetate] | diminishing ROS at two or three concentrations | prevent TBHP-induced opening | < 0.5 |  | about 3 fold | ~3 |  |  |
| CC(=O)O[C@H]1OC[C@@H]2C=C([C@@]3(C)CCCC(C)(C)C3)CC[C@H]12 [Compound 29a, (1R,3aR,7aS)-5-(1,3,3-trimethylcyclohexyl)-1,3,3a,6,7,7a-hexahydroisobenzofuran-1-yl acetate] |  | prevent TBHP-induced opening | < 0.5 |  |  |  | 15 to 25 | relatively non-toxic |
